Measured values taken from ChEMBL document CHEMBL1201862, “PubChem BioAssay data set” (2004).
Active and inactive are the calls of the source. Cut-off read from the data, not from the text of the source: actives have a measured AC50 and inactives only a lower limit.

Experiments:
[1] = target: T1, Luciferin 4-monooxygenase (Photuris pensylvanica, UniProt Q27757); test: firefly luciferase enzyme inhibitors, dose response, counter-screen for HSF-1 reporter inhibitor project, biochemical, Cell Titer Glo, luminescence, cherry-picks (AID 588847)
T1 sequence (Q27757 whole entry): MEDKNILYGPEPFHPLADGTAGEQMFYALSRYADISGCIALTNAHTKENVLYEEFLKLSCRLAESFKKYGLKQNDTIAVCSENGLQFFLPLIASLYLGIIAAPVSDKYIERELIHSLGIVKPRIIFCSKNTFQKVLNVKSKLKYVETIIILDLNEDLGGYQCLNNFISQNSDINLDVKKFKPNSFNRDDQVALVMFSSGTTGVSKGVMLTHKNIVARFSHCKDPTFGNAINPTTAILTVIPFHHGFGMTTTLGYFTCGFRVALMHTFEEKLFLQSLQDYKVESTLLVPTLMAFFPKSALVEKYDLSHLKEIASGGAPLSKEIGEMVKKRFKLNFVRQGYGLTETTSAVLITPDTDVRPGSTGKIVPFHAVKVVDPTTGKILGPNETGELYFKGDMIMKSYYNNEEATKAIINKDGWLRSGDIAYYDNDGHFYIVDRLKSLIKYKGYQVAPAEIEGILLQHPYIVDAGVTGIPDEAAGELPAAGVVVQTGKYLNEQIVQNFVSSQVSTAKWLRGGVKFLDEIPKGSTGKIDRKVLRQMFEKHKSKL

Escherichia coli [2] = test: microbe, parasite or virus in culture
Escherichia coli [3] = test: microbe, parasite or virus in culture; remark: listed apart in the source

| SMILES | AC50 [1] | AC50 (Escherichia coli [2]) | AC50 (Escherichia coli [3]) |
| --- | --- | --- | --- |
| CCC(=O)O[C@]1(C(=O)CCl)[C@@H](C)C[C@H]2[C@@H]3CCC4=CC(=O)C=C[C@]4(C)[C@@]3(F)[C@@H](O)C[C@@]21C [CLOBETASOL PROPIONATE] | > 52 µM (inactive) | – | – |
| c1coc(CN2CNc3nc4ccccc4n3C2)c1 | – | 79.4 µM (active) | 101 µM (active) |
| Cc1ccc(CNC(=O)COC(=O)c2cccnc2Cl)cc1 | – | 29.3 µM (active) | 73.1 µM (active) |
| CC(C)(C)OC(=O)NCCCCCNC(=O)c1[nH]cnc1C(=O)NC1CCN(C(=O)OC(C)(C)C)CC1 | – | – | 235 µM (active) |
